Reference: US20020025940A1, “Methods and compositions for sensitive and rapid, functional identification of genomic polynucleotides and use for cellular assays in drug discovery” (Aurora Biosciences Corporation, priority 1997, published 2002)
Read-outs that look alike come from different tables or passages of the source.

Assays:
[1] = tested on: T-cell receptor pathway (clone J32-6D4)
From the text: Thus, this clone was used to identify chemicals that inhibit this T-cell receptor pathway that is also stimulated by the PKC activator PMA.

[2] = tested on: BLEC integrated RBL-1 cell clones; assay: FACS of BLEC-1 integrated RBL-1 clones after ionomycin stimulation (CCF2/AM blue/green); type: cell-based, rat
Procedure: This library of BLEC-1 integrated clones was loaded with the fluorescent substrate of BL (CCF-2-AM) by adding 10 microM CCF-2-AM in HBSS containing […] at pH 7.1 and 1% glucose. After a 1 hour incubation at 22° C. cells were washed with HBSS and viewed upon excitation with 400 nm light using a 435 nm long pass emission filter. Under these assay conditions 10% of the cells were blue fluorescent indicating they were expressing beta-lactamase.
Fluorescent activated cell sorting of multi-clonal populations of RBL-1 gene integrated clones was used to identify clones with regulated BL gene expression. A BL non-expressing population of cells was isolated by sorting a library of BLEC-1 integrated clones generated by transfection of RBL-1 cells as described in Example 2. 180,000 clones expressing little or no BL were isolated by sorting for clones with a low blue/green ratio (R1 population), as shown in FIG. 4A. This population of clones was grown for seven days and resorted by FACS to test the population's fluorescent properties. […] It is also clear that the total population has shifted towards more green cells compared to the parent population, as shown in FIG. 4A. There are, however, cells with a high blue/green ratio showing up in the green sorted population. These may represent clones in which the BLEC has integrated into a differentially regulated gene such as a gene whose expression changes throughout the cell cycle.
The population of RBL-1 clones shown in FIG. 4B was stimulated by addition of 1 uM ionomycin for 6 hours and resorted to identify clones which had the BLEC integrated into a gene which is inducible by increasing intracellular calcium. A greater percentage of blue clones were present in all three of the blue sub-population (R4, R2, R5) in the ionomycin stimulated when compared to the unstimulated population.

[3] = tested on: Jurkat cells; assay: Proliferation assay (MTT), Jurkat cells; type: cell-based, human; details: concentrations up to 10 microM, five days
Procedure: (§1) Chemicals A and B were further tested for their anti-proliferative effect on Jurkat cells and mouse L-cells (mouse fibroblast cell line). […] Proliferation assays were performed by seeding about 20,000 cells unactivated by PHA into a 24 well plate. These cells were contacted with chemicals and were then incubated at 37° C. for five days. The cells were contacted with 10 micrograms/ml of MTT (Sigma Chemical Co., MO) for three hours. The cells were then collected, resuspended in isopropanol, and the absorbance was read in a plate reader at a wavelength of 570 nm with a background subtraction at a reading at a wavelength of 690 nm (see, Carmichael et al., Cancer Res. 47:936 (1987)).

[4] = tested on: mouse L-cells (mouse fibroblast cell line); assay: Proliferation assay (MTT), mouse L-cells; type: cell-based; details: concentrations up to 10 microM, five days
Procedure: as §1

[5] = 10 microM chemical, 1 microgram/ml of PHA for 18 hours

SMILES: C[C@H]1O[C@@H](O[C@H]2[C@@H](O)C[C@H](O[C@H]3[C@@H](O)C[C@H](O[C@H]4CC[C@@]5(C)[C@H](CC[C@@H]6[C@@H]5CC[C@]5(C)[C@@H](C7=CC(=O)OC7)CC[C@]65O)C4)O[C@@H]3C)O[C@@H]2C)C[C@H](O)[C@@H]1O [Digitoxin]
- % Inhibition of PHA activation of Clone J32-6D4 [1, 5]: 77%

SMILES: C[C@H]1O[C@@H](O[C@H]2[C@@H](O)C[C@H](O[C@H]3[C@@H](O)C[C@H](O[C@H]4CC[C@@]5(C)[C@H](CC[C@@H]6[C@@H]5C[C@@H](O)[C@]5(C)[C@@H](C7=CC(=O)OC7)CC[C@]65O)C4)O[C@@H]3C)O[C@@H]2C)C[C@H](O)[C@@H]1O [Digoxin]
- % Inhibition of PHA activation of Clone J32-6D4 [1]: 86%

SMILES: [O-][n+]1ccccc1SSc1cccc[n+]1[O-] [Dipyrithione]
- % Inhibition of PHA activation of Clone J32-6D4 [1, 5]: 70%

SMILES: CN(C)c1ccc(C(=C2C=CC(=[N+](C)C)C=C2)c2ccc(N(C)C)cc2)cc1 [Gentian Violet]
- % Inhibition of PHA activation of Clone J32-6D4 [1, 5]: 73%

SMILES: C[C@H](CCC(=O)O)C[C@H](C)C[C@H](C)C(=O)/C=C(\O)[C@H](C)C[C@H](C)C/C=C/[C@@H](C)[C@@H](O)[C@@H](C)[C@@H](O)C[C@@H]1CC[C@@](C)([C@H]2CC[C@@](C)([C@@H](C)O)O2)O1 [Ionomycin, ionomycin]
- Ratio +Ion/−Ion, sort window R4 (blue) ([2]; 1 uM ionomycin vs unstimulated): 2.2
- Ratio +Ion/−Ion, sort window R5 ([2]; 1 uM ionomycin vs unstimulated): 1.6
- Ratio +Ion/−Ion, sort window R6 (green) ([2]; 1 uM ionomycin vs unstimulated): .9
- Stimulated % of cells in sort window R4 (blue) ([2]; 1 uM ionomycin, 6 hours, R4 highest blue/green ratio): .24%
- Stimulated % of cells in sort window R5 ([2]; 1 uM ionomycin, 6 hours, R5 lower blue/green ratio): 2.5%
- Stimulated % of cells in sort window R6 (green) ([2]; 1 uM ionomycin, 6 hours, R6 green): 61.64%

SMILES: CCCCC1C(=O)N(c2ccccc2)N(c2ccc(O)cc2)C1=O (stereo not shown) [Oxyphenbutazone]
- % Inhibition of PHA activation of Clone J32-6D4 [1, 5]: 75%

SMILES: C[C@@H]1O[C@@H](O[C@H]2C[C@@H](O)[C@]3(CO)[C@H]4[C@H](O)C[C@]5(C)[C@@H](C6=CC(=O)OC6)CC[C@]5(O)[C@@H]4CC[C@]3(O)C2)[C@H](O)[C@H](O)[C@H]1O [Quabain]
- % Inhibition of PHA activation of Clone J32-6D4 [1, 5]: 50%

SMILES: Nc1nc2nc[nH]c2c(=S)[nH]1 [Thioguanine]
- % Inhibition of PHA activation of Clone J32-6D4 [1, 5]: 50%

SMILES: O=C(O)/C=C/c1ccc2ccccc2n1 [chemical B]
- anti-proliferative effect on Jurkats [3]: no anti-proliferative effect
- IC50 ([1]; Homo sapiens, T-cell, read-out: IC50 of the inhibition of PHA activation of beta-lactamase expression): ~200 nM
- anti-proliferative effect on L-cells [4]: no anti-proliferative effect
